Drawing on patent US10214546B2, “Btk inhibitors” (MERCK SHARP & DOHME CORP., priority 2014, dated 2019), this text covers IC50 for 20 molecules.

Assay [1] addresses BTK enzyme (recombinant full-length BTK, hBTK) (Homo sapiens (Human), UniProt Q06187). As to the kind of experiment: BTK enzymatic activity LANCE TR-FRET assay. The assay is classed as biochemical. The conditions noted are these: 50 pM hBTK, 25 μM ATP, 2 μM biotin-A5-peptide; compound range 1 μM to 0.017 nM; read-out: BTK binding IC50. The procedure: Btk Enzyme Activity Assay Methods
BTK enzymatic activity was determined with the LANCE (Lanthanide Chelate Excite) TR-FRET (Time-resolved fluorescence resonance energy transfer) assay. […] Phosphorylation reactions were allowed to proceed for 120 minutes. […] After 60 minutes incubation with detection reagents, reaction plates were read on a PerkinElmer EnVision plate reader using standard TR-FRET protocol. […] IC50 values were determined by 4 parameter robust fit of TR-FRET ratio values vs. (Log10) compound concentrations.
For orientation: TR-FRET usually uses a lanthanide donor and a delayed reading to cut background.

For assay [2], the system named is adenosine uptake into HeLa cells. As to the kind of experiment: [3H]Adenosine uptake assay in HeLa cells. The assay is classed as cell-based. The conditions noted are these: [3H]adenosine accumulation in HeLa cells, compound range 10 μM to 0.032 nM, read-out: ADU inhibition IC50. How it is done:
Compounds are also screened in an adenosine uptake functional cellular assay using the protocol described below:
[^3H]Adenosine Uptake Assay Methods
Adenosine uptake activity was determined by monitoring the accumulation of tritiated adenosine into HeLa cells (ATCC catalog # CCL-2) using a PMT-based radiometric detection instrument. In this assay, the potency (IC50) of each compound was determined from a ten point (1:3 serial dilution; final compound concentration range in assay from 10 µM to […]) titration curve using the following outlined procedure. To each well of a 96-well CytoStar-T scintillating microplate (Perkin Elmer Catalog # RPNQ0163), 25 000 HeLa cells in 100 µL of growth medium comprising: Minimum Essential Media (Life Technologies Catalog #11095-080)+10% (v/v) foetal bovine serum (FBS; Sigma Aldrich Catalog # F2442) was added. These cells were incubated overnight at 37° C. in a humidified atmosphere with 5% (v/v) CO2. After this time the growth medium was removed and replaced with 40 μL assay medium comprising: Hanks balanced salts solution (HBSS; Thermo Fisher Catalog # SH30268.01)+5% (v/v) FBS. Compound stock solutions in DMSO were diluted in assay medium to 2.5× final compound concentration maintaining a constant DMSO concentration of 0.25% (v/v). 40 μL of compound in assay medium was dispensed into individual wells of the Cytostar-T plates and the plates were incubated for 30 minutes under ambient laboratory conditions. Following this incubation, 20 μL of 500 nM [^3H] adenosine (American Radiolabeled Chemicals Inc. […] The amount of radiolabel accumulation was then determined using a Perkin Elmer Topcount NXT microplate reader. In brief, HeLa cells adhere to the bottom of the Cytostar-T plate, uptake of [^3H]adenosine into these cells brings the radiolabel into sufficient proximity to excite the scintillant in the base of the plates. These events are captured by single PMT, time-resolved coincidence counting. IC50 values were determined by 4 parameter robust fit of counts per second values vs. (Log10) compound concentrations.

Read-outs that look alike come from different tables or passages of the source.

What is called IC50 is the concentration that gives 50% inhibition.

BTK enzyme (recombinant full-length BTK, hBTK), sequence (Q06187 whole entry): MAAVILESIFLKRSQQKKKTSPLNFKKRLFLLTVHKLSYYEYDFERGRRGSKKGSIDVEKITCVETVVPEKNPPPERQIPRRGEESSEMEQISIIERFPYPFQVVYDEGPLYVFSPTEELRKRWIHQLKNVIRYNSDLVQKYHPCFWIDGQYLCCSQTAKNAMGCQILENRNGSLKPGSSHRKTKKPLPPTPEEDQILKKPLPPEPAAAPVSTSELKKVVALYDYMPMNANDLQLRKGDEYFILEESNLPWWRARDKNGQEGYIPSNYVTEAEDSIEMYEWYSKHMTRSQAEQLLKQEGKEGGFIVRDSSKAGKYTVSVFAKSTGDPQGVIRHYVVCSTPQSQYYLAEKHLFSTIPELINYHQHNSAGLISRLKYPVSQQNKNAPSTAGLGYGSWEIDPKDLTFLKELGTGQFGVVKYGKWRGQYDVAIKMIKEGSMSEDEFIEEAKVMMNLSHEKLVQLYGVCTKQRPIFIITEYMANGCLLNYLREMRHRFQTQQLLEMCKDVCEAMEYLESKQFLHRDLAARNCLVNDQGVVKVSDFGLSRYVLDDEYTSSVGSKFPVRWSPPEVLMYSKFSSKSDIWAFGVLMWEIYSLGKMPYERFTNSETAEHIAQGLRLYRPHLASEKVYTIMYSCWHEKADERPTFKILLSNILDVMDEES

As for `COc1cc(C(O)(c2cccc(C(F)(F)F)c2)C(F)(F)F)ccc1-c1nc([C@@H]2CC[C@H]3CCC(=O)N3C2)n2ccnc(N)c12` (single isomer, unassigned) [Example 10], the IC50 came out at 496 nM in assay [1] and 2160 nM in assay [2].

On to `COc1cc(C(O)(c2cccc(C(F)(F)F)c2)C(F)(F)F)ccc1-c1nc([C@@H]2CC[C@H]3CCC(=O)N3C2)n2ccnc(N)c12` (single isomer, unassigned) [Example 11], for which the IC50 in assay [1] stood at 1.8 nM; in assay [2], 5340 nM.

Regarding `C[C@](O)(c1ccccc1)c1ccc(-c2nc([C@@H]3CC[C@H]4CCC(=O)N4C3)n3ccnc(N)c23)cc1` [Example 1, (6R,8aS)-6-(8-amino-1-(4-((S)-1-hydroxy-1-phenylethyl)phenyl)imidazo[1,5-a]pyrazin-3-yl)hexahydroindolizin-3(2H)-one], the IC50 in assay [1] came to 65.2 nM; in assay [2] (Homo sapiens, HeLa), 3340 nM.

On to `C[C@@](O)(c1ccccc1)c1ccc(-c2nc([C@@H]3CC[C@H]4CCC(=O)N4C3)n3ccnc(N)c23)cc1` [Example 2, (6R,8aS)-6-(8-amino-1-(4-((R)-1-hydroxy-1-phenylethyl)phenyl)imidazo[1,5-a]pyrazin-3-yl)hexahydroindolizin-3(2H)-one], for which the IC50 in assay [1] was determined as 1.6 nM; in assay [2] (Homo sapiens, HeLa), 6350 nM.

On to `C[C@@](O)(c1ccc(-c2nc([C@@H]3CC[C@H]4CCC(=O)N4C3)n3ccnc(N)c23)cc1)c1cccc(C(F)(F)F)c1` [Example 3, (6R,8aS)-6-(8-amino-1-(4-((R)-1-hydroxy-1-(3-(trifluoromethyl)phenyl)ethyl)phenyl)imidazo[1,5-a]pyrazin-3-yl)hexahydroindolizin-3(2H)-one], for which the IC50 was 884 nM in assay [1] and 405 nM in assay [2] (Homo sapiens, HeLa).

Regarding `C[C@](O)(c1ccc(-c2nc([C@@H]3CC[C@H]4CCC(=O)N4C3)n3ccnc(N)c23)cc1)c1cccc(C(F)(F)F)c1` [Example 4, (6R,8aS)-6-(8-amino-1-(4-((S)-1-hydroxy-1-(3-(trifluoromethyl)phenyl)ethyl)phenyl)imidazo[1,5-a]pyrazin-3-yl)hexahydroindolizin-3(2H)-one], the IC50 in assay [1] was 0.62 nM; in assay [2] (Homo sapiens, HeLa) it was 3480 nM.

With `C[C@](O)(c1ccc(-c2nc([C@@H]3CC[C@H]4CCC(=O)N4C3)n3c(Cl)cnc(N)c23)cc1)c1cccc(C(F)(F)F)c1` [Example 5, (6R,8aS)-6-(8-amino-5-chloro-1-(4-((S)-1-hydroxy-1-(3-(trifluoromethyl)phenyl)ethyl)phenyl)imidazo[1,5-a]pyrazin-3-yl)hexahydroindolizin-3(2H)-one], the IC50 was 377 nM in assay [1] and 553 nM in assay [2] (Homo sapiens, HeLa).

On to `C[C@@](O)(c1ccc(-c2nc([C@@H]3CC[C@H]4CCC(=O)N4C3)n3c(Cl)cnc(N)c23)cc1)c1cccc(C(F)(F)F)c1` [Example 6, (6R,8aS)-6-(8-amino-5-chloro-1-(4-((R)-1-hydroxy-1-(3-(trifluoromethyl)phenyl)ethyl)phenyl)imidazo[1,5-a]pyrazin-3-yl)hexahydroindolizin-3(2H)-one], for which the IC50 is 0.76 nM in assay [1] and 1730 nM in assay [2] (Homo sapiens, HeLa).

As to `CC1(C)C[C@@H]2CC[C@@H](c3nc(-c4ccc([C@@](C)(O)c5cccc(C(F)(F)F)c5)cc4)c4c(N)nccn34)CN2C1=O` [Example 7, (6R,8aS)-6-(8-amino-1-(4-((R)-1-hydroxy-1-(3-(trifluoromethyl)phenyl)ethyl)phenyl)imidazo[1,5-a]pyrazin-3-yl)-2,2-dimethylhexahydroindolizin-3(2H)-one], the IC50 in assay [1] was 0.82 nM; in assay [2] (Homo sapiens, HeLa) it was 2790 nM.

Regarding `CC1OC(=O)N2C[C@H](c3nc(-c4ccc([C@@](C)(O)c5cccc(C(F)(F)F)c5)cc4)c4c(N)nccn34)OC[C@@H]12` (stereo partly drawn) [Example 8, (6R,8aS)-6-(8-amino-1-(4-((R)-1-hydroxy-1-(3-(trifluoromethyl)phenyl)ethyl)phenyl)imidazo[1,5-a]pyrazin-3-yl)-1-methyltetrahydrooxazolo[4,3-c][14]oxazin-3(1H)-one], the figures for the IC50 in assay [1] and in assay [2] were 20.6 nM and 5080 nM, respectively.

As for `C[C@@H]1OC(=O)N2C[C@H](c3nc(-c4ccc([C@@](C)(O)c5cccc(C(F)(F)F)c5)cc4)c4c(N)nccn34)OC[C@@H]12` [Example 9, (6R,8aS)-6-(8-amino-1-(4-((R)-1-hydroxy-1-(3-(trifluoromethyl)phenyl)ethyl)phenyl)imidazo[1,5-a]pyrazin-3-yl)-1-methyltetrahydrooxazolo[4,3-c][1,4]oxazin-3(1H)-one], the IC50 in assay [1] is 13 nM; in assay [2] (Homo sapiens, HeLa) it was 5540 nM.

For `Nc1nccn2c([C@@H]3CC[C@H]4CCC(=O)N4C3)nc(-c3ccc(C(O)(c4ccccc4)C(F)(F)F)cc3)c12` (stereo partly drawn) [Example 12, (6R,8aS)-6-(8-amino-1-(4-(2,2,2-trifluoro-1-hydroxy-1-phenethyl)phenyl)imidazo[1,5-a]pyrazin-3-yl)hexahydroindolizin-3(2H)-one], the IC50 in assay [1] was 3.4 nM; in assay [2] (Homo sapiens, HeLa) it was 1240 nM.

Regarding `CC(O)(c1ccc(-c2nc([C@@H]3CC[C@H]4CCC(=O)N4C3)n3ccnc(N)c23)cc1)c1cccc(C(F)(F)F)c1` (stereo partly drawn) [Example 13, (6R,8aS)-6-(8-amino-1-(4-(1-hydroxy-1-(3-(trifluoromethyl)phenyl)ethyl)phenyl)imidazo[1,5-a]pyrazin-3-yl)hexahydroindolizin-3(2H)-one], the IC50 in assay [1] is 1.7 nM; in assay [2] (Homo sapiens, HeLa) it was 873 nM.

In the case of `CC(C)C(C)(O)c1ccc(-c2nc([C@@H]3CC[C@H]4CCC(=O)N4C3)n3ccnc(N)c23)cc1` (stereo partly drawn) [Example 14, (6R,8aS)-6-{8-amino-1-[4-(1-hydroxy-1,2-dimethylpropyl)phenyl]imidazo[1,5-a]pyrazin-3-yl}hexahydroindolizin-3(2H)-one], the IC50 came out at 256 nM in assay [1] and 6950 nM in assay [2] (Homo sapiens, HeLa).

For the molecule `CC(O)(c1ccc(-c2nc([C@@H]3CC[C@H]4CCC(=O)N4C3)n3ccnc(N)c23)cc1)c1ccc(C(F)(F)F)cc1` (stereo partly drawn) [Example 15, (6R,8aS)-6-[8-amino-1-(4-{1-hydroxy-1-[4-(trifluoromethyl)phenyl]ethyl}phenyl)imidazo[1,5-a]pyrazin-3-yl]hexahydroindolizin-3(2H)-one], the IC50 in assay [1] came out at 388 nM; in assay [2] (Homo sapiens, HeLa), 1780 nM.

On to `CC(O)(c1ccc(-c2nc([C@@H]3CC[C@H]4CCC(=O)N4C3)n3ccnc(N)c23)cc1)c1cccc(F)c1` (stereo partly drawn) [Example 16, (6R,8aS)-6-(8-amino-1-{4-[1-(3-fluorophenyl)-1-hydroxyethyl]phenyl}imidazo[1,5-a]pyrazin-3-yl)hexahydroindolizin-3(2H)-one], for which the IC50 in assay [1] is 7.3 nM; in assay [2] (Homo sapiens, HeLa) it was 2440 nM.

On to `CC(O)(c1ccc(-c2nc([C@@H]3CC[C@H]4CCC(=O)N4C3)n3ccnc(N)c23)cc1)c1ccccn1` (stereo partly drawn) [Example 17, (6R,8aS)-6-{8-amino-1-[4-(1-hydroxy-1-pyridin-2-ylethyl)phenyl]imidazo[1,5-a]pyrazin-3-yl}hexahydroindolizin-3(2H)-one], for which the IC50 in assay [1] is 324 nM; in assay [2] (Homo sapiens, HeLa) it was 5720 nM.

For the molecule `CC(O)(c1ccccc1)c1ccc(-c2nc([C@@H]3CC[C@H]4CCC(=O)N4C3)n3ccnc(N)c23)cc1` (stereo partly drawn) [Example 23, (6R,8aS)-6-{8-amino-1-[4-(1-hydroxy-1-phenylethyl)phenyl]imidazol[1,5-a]pyrazin-3-yl}hexahydroindolizin-3(2H)-one], in assay [1], the IC50 amounted to 3.5 nM.

As to `Nc1nccn2c([C@@H]3CC[C@H]4CCC(=O)N4C3)nc(-c3ccc(C(O)(c4ccc(C(F)(F)F)cc4)C(F)(F)F)cc3)c12` (stereo partly drawn) [Example 28, (6R,8aS)-6-[8-amino-1-(4-{2,2,2-trifluoro-1-hydroxy-1-[4-(trifluoromethyl)phenyl]ethyl}phenyl)imidazo [1,5-a]pyrazin-3-yl]hexahydroindolizin-3(2H)-one], the IC50 in assay [1] stood at 792 nM.

On to `Nc1nccn2c([C@@H]3CC[C@H]4CCC(=O)N4C3)nc(-c3ccc(C(O)(c4ccc(F)cc4)C(F)(F)F)cc3)c12` (stereo partly drawn) [Example 32, (6R,8aS)-6-(8-amino-1-{4-[2,2,2-trifluoro-1-(4-fluorophenyl)-1-hydroxyethyl]phenyl}imidazo[1,5-a]pyrazin-3-yl)hexahydroindolizin-3(2H)-one], for which the IC50 in assay [1] is 161 nM.
